Holding throughout (format): biochemical
The target in assay [1] is EGFR (ErbB1) (Homo sapiens, UniProt P00533). In words: Z'-LYTE Tyr4 peptide kinase assay, 10-point dose-response.
In assay [2] the target is EGFR L861Q (Homo sapiens, UniProt P00533, L861Q). In words: Z'-LYTE Tyr4 peptide kinase assay, single dose […]. The settings on record: read-out: Mean inhibition at 10 μM (%).
In assay [3] the target is EGFR T790M (Homo sapiens, UniProt P00533, T790M). In words: Z'-LYTE Tyr4 peptide kinase assay, single dose […]. As to conditions: read-out: Mean inhibition at 10 μM (%).
The target of assay [4] is EGFR L858R (Homo sapiens, UniProt P00533, L858R). In words: Z'-LYTE Tyr4 peptide kinase assay, single dose […]. As to conditions: read-out: Mean inhibition at 10 μM (%).

Structures are written as SMILES.

The results in this text go back to publication PMC5272797 (Biochemical pharmacology, 2016).

Chain of EGFR T790M (P00533 668-1210 T790M limits assumed): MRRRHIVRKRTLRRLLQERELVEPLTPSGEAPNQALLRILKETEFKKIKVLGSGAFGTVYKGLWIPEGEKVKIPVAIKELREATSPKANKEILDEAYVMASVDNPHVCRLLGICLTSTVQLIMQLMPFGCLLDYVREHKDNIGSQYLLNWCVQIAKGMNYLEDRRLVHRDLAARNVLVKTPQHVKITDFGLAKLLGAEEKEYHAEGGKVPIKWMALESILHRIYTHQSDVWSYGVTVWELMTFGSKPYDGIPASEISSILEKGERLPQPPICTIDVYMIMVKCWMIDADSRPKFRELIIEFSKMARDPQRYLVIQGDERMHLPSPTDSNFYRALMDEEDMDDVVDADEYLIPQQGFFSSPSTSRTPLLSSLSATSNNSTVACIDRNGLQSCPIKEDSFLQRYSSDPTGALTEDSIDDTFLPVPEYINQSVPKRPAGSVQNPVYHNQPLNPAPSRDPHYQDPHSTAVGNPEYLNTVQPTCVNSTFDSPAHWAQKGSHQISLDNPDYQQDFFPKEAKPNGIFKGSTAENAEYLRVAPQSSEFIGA
Chain of EGFR L861Q (P00533 668-1210 L861Q limits assumed): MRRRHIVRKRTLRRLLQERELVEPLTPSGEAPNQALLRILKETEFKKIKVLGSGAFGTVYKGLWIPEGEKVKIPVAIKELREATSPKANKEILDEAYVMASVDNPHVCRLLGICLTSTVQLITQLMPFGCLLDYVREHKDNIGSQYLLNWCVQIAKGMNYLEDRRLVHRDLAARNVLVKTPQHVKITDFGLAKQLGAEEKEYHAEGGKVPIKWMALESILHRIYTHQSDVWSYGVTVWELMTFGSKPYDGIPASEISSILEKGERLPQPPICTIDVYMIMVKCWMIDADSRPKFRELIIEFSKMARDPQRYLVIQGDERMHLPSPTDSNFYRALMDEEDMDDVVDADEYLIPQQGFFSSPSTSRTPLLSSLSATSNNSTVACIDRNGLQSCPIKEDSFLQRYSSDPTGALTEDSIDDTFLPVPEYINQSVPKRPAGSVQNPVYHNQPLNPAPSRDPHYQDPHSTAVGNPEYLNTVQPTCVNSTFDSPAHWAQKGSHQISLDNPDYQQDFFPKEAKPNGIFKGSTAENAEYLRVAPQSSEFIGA
Chain of EGFR L858R (P00533 668-1210 L858R limits assumed): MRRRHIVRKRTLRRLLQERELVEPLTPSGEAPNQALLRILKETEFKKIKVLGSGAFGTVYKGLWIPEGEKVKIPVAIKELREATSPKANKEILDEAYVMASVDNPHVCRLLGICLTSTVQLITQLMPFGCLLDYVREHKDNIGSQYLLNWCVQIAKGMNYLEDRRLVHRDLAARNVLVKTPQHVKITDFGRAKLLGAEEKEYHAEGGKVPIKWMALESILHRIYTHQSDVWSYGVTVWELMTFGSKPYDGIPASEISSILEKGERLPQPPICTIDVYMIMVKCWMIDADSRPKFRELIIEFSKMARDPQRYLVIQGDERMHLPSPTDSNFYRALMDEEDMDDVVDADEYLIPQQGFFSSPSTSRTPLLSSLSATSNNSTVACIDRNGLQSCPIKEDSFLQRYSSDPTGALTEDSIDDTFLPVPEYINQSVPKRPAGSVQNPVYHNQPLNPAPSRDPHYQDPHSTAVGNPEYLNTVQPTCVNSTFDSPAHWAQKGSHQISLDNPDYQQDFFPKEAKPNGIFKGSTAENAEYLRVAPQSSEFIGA
Chain of EGFR (ErbB1) (P00533 668-1210): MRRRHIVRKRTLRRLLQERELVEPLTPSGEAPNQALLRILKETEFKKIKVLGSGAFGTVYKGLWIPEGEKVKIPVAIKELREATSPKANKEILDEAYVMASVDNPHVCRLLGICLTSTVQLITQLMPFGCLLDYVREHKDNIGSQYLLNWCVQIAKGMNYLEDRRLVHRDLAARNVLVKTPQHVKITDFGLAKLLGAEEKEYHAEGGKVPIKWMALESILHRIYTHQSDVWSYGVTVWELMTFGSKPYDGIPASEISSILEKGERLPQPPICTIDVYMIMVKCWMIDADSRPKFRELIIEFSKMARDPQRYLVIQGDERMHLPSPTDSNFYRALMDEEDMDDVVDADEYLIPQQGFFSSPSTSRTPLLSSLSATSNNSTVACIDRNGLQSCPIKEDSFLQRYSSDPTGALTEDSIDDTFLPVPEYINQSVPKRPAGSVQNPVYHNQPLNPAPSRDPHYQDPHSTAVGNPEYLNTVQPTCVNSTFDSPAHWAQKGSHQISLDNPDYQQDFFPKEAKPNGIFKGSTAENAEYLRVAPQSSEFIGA

As to `CCCC(=O)O[C@]1(C)CC[C@H](C(C)C)[C@@H]2[C@H]1[C@H]1C[C@](C)(O)[C@@H](O)CC[C@@](C)(OC(C)=O)[C@@H]2O1` [compound 1, Pachycladin A], the IC50 in assay [1] worked out at 570 nM. The inhibition at 10 µM in assay [2] was 93%; in assay [3], 93%; in assay [4], 98%.

The term IC50 denotes the point on the concentration scale where inhibition reaches its midpoint. High values mean weaker potency, low ones greater potency. By inhibition is commonly meant the drop in the measured response relative to a control, in per cent.
